Results published in US6110944A, “LTA4, hydrolase inhibitors” (G. D. Searle & Co., priority 1997, dated 2000).
Where a name gives a salt, the structure may show the parent alone.

Experiments:
[1] = tested on: LTB4 production in calcium ionophore-stimulated human blood; experiment: LTB4 Production by Calcium Ionophore Stimulated Human Blood (HWB); assay type: cell-based; settings: human blood diluted 1:4, 15 min preincubation at 37° C., ionophore 20 mcg/ml, 10 min; read-out: Inhibition of Calcium Ionophore-induced LTB4 Production in Human Blood IC50 HWB
Protocol: LTB4 and Thromboxane Production by Calcium Ionophore Stimulated Human Blood for LTB4 Hydrolase Inhibitor Activity
Human blood, collected in heparin-containing Vacutainer tubes, was diluted 1:4 with RPMI-1640 media and 200 μl of the diluted blood was added into each of a 96-well microtiter plate. One or more concentrations of the leukotriene A4 hydrolase inhibitor compounds being tested were prepared (diluted in DMSO) and 2 μl added and gently mixed with the diluted whole blood. After incubating for 15 minutes at 37° C. in a humidified incubator, calcium ionophore […] (Sigma Chemical Co., St. Louis, Mo.) was added to a final concentration of 20 mcg/ml and the incubation continued under the same conditions for an additional 10 minutes to allow LTB4 formation. The reaction was terminated by centrifugation (833 g, 10 minutes at 4° C.) and supernatant were analyzed for LTB4 and thromboxane by commercially available enzyme-linked immunoassays (Caymen Chemical Co., Ann Arbor, Mich.) according to the manufacturer's instructions. The IC50 of each test compound was determined from the amount of inhibition of LTB4 production as compared to an essentially identical assay in which no inhibitor compound was present.

[2] = tested on: LTB4 production in calcium ionophore-stimulated mouse blood; experiment: Murine Ex Vivo LTB4 Inhibition, calcium ionophore stimulated mouse blood after oral gavage; assay type: in vivo; settings: blood collected 1 hour after administration, ionophore A23187 20 mcg/ml, read-out: Murine Ex Vivo LTB4 Inhibition % I LTB4 at 1 hour after administration of 10 mg/kg
Protocol: Ex Vivo LTB4 and Thromboxane Production by Calcium Ionophore Stimulated Mouse Blood for LTB4 Hydrolase Inhibitor Activity
Leukotriene A4 hydrolase inhibitor compounds of the present invention were diluted to a predetermined concentration in phosphate buffered saline containing 2%; DMSO and 1% Tween 80. The compounds were administered by oral gavage to adult male outbred mice weighing approximately 20-30 gm at a dose of 10 mg/kg body weight. (Compounds given at a dose of 50 mg/kg body weight are designated in following Table by the symbol, *) Sixty (60) minutes after administration of an LTA4 inhibitor compound of the invention, blood was collected (into heparin-containing tubes) from the retroorbital sinus. […] The mixture was incubated for 10 minutes at 37° C. in a humidified incubator. The reaction was terminated by centrifugation (833 g. 10 minutes at 4° C.). Supernatant were analyzed for LTB4 and thromboxane by commercially available enzyme-linked immunoassays [Caymen Chemical Co., Ann Arbor, Mich.] in accordance with the manufacturer's instructions. The percent inhibition was determined by comparison to animals treated identically except that the solution administered by oral gavage was devoid of inhibitor compound.

[3] = biological target: T1, recombinant human LTA hydrolase (rhLTAH) (Homo sapiens, UniProt P09960); experiment: Recombinant Human LTA Hydrolase Assay for LTA Hydrolase Inhibitor Activity; assay type: biochemical; settings: 250 ng rhLTA4H, 10 min preincubation, room temperature, pH 7.4, 10 min reaction, immunoassay; read-out: Recombinant Human LTA4 Hydrolase Assay IC50 LTA4
T1 construct: made in house; host or cells: Spodoptera frugiperda Sf-9 cells (baculovirus AcNPV)
T1 sequence (P09960 1-611): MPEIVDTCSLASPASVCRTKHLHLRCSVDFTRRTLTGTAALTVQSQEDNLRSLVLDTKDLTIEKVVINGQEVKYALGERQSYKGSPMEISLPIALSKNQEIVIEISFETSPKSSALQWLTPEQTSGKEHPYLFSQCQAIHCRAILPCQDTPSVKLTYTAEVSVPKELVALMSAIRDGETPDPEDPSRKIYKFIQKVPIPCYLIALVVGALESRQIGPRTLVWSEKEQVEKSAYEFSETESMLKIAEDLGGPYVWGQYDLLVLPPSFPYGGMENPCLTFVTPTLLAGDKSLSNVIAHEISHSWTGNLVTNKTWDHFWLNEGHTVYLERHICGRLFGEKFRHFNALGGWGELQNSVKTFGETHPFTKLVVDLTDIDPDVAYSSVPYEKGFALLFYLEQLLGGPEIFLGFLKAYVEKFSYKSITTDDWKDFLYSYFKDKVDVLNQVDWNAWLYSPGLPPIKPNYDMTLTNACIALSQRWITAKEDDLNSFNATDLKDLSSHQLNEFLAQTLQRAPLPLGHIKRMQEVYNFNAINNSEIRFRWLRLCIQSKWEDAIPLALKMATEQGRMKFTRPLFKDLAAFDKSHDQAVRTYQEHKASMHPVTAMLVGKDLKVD
Protocol: Recombinant Human LTA Hydrolase Assay for LTA Hydrolase Inhibitor Activity
Compounds of the present invention were tested for LTA hydrolase inhibitor activity against recombinant human LTA hydrolase (rhLTAH). Recombinant human LTA hydrolase-encoding vectors were prepared and used to express rhLTAH essentially as described by J. Gierse, et al., Protein Expression and Purification, 4, 358-366 (1993). Briefly, LTA hydrolase encoding DNA was amplified by polymerase chain reaction using a pair of oligonucleotide primers based on the nucleotide sequence from the 5'-end, and the complement of the 3'-end, of the coding region of the LTA hydrolase gene, the nucleotide sequence of which gene is known. (See, C. Funk, et al., Proc. Natl. Acad. Sci. U.S.A. 84, 6677-6681 (1987)). A λgt11 human placental cDNA library (Clonetech, Palo Alto, Calif.) provided the nucleic acid template. […] The amplified 1.9 kb DNA was isolated and cloned into the genomic baculovirus, Autographa californica nuclear polyderosis virus (AcNPC) DNA, and the baculovirus expression vector was transfected into Spodoptera frugiperda Sf-9 cells employing the calcium phosphate co-precipitation method (see, M. Summers, et al., Tex. Agric. Exp. Stn. Bull. 1555, 1-57 (1987). Recombinant LTA4 hydrolase enzyme was purified from the transfected Sf-9 cells essentially as described by J. Gierse, et al., supra.
One or more predetermined amounts of a compound of the invention were incubated in assay buffer (0.1 M potassium phosphate, 5 mg/ml fatty acid free BSA, 10% DMSO, pH 7.4) for 10 minutes at room temperature with 250 ng of recombinant hLTA4 H to allow binding, if any, between the enzyme and inhibitor. The stock enzyme solution was 1 mg/m. LTA4 hydrolase, 50 mM Tris, pH 8.0, 150 mM NaCl, 2.5 mM beta-mercaptoethanol, 50% glycerol. The specific activity of the enzyme was about 650 nMoles/min/mg. LTA4 (i.e., substrate) was prepared from the methyl ester of LTA, (Biomol, Inc., Plymouth Meeting, Pa.) by treating the methyl ester with 30 molar equivalents of LiOH at room temperature for 18 hours. The LTA4 substrate in its free acid form was kept frozen at -80° C. until needed. LTA, (free acid) was thawed and diluted in assay buffer (minus DMSO) to a concentration of 350 ng/ml and 25 μl (8 ng) of LTA4 substrate was added to the reaction mixture (total volume of reaction mixture=200 μl at time zero. Each reaction was carried out at room temperature for 10 minutes. The reaction was stopped by diluting 25 μl of the reaction mixture with 500 μl of the assay buffer without DMSO. […] was quantified in the diluted sample by a commercially available enzyme-linked immunoassay [Caymen Chemical Col. Ann Arbor, Mich.] using the method recommended in the manufacturer's instructions and compared to the amount of […] produced in a negative control (i.e., essentially identical conditions except without addition of an inhibitor compound). The IC50 was routinely calculated from the data produced.

[4] = tested on: granulocyte; settings: R. Lewis, et al., 1990; cited from earlier work
[5] = tested on: LTA4 hydrolase; settings: background statement, no value; cited from earlier work

IC50 [1] [nM] | IC50 [3] [nM] | SMILES | inhibition at 10 mg/kg [2] [%] | granulocyte agonist activity inducing chemotaxis, aggregation, degranulation, adherence and priming [4] | LTA4 hydrolase inhibitory activity [5]
190 | 200 | c1ccc(Cc2ccc(OCC3=NC4CCCCC4N3)cc2)cc1 (stereo not shown) [Example 13] | 71 | – | –
– | 7800 | N=C(COc1ccc(Cc2ccccc2)cc1)NC1C2CC3CC(C2)CC1C3 (stereo not shown) [Example 11, 2-[4-(phenylmethyl)phenoxy]-N-(tricyclo[3.3.1.1 3,7]decan-2-yl)ethanimidamide, monohydrate] | – | – | –
640 | 64 | c1ccc(Cc2ccc(OCCCC3=NCCN3)cc2)cc1 [Example 17] | 28 | – | –
77 | 17 | N=C(COc1ccc(Cc2ccccc2)cc1)N1CCC(C(N)=O)CC1 [Example 9, 1-[1-imino-2-[4-(phenylmethyl)phenoxy]ethyl]-4-piperidinecarboxamide] | 30 | – | –
85 | 4.3 | N=C(COc1ccc(Cc2ccccc2)cc1)N1CCCCC1 [Example 4, α[[4-(phenylmethyl)phenoxy)methyl]-1-peperidinemethanimine, monohydrochloride] | 30 | – | –
640 | 53 | N=C(CCCOc1ccc(Cc2ccccc2)cc1)N1CCCCC1 [Example 16, α-[3-[4-(phenylmethyl)phenoxy)propyl]-1-peperidinemethanimine, monohydrochloride] | 60 | – | –
220 | 70 | c1ccc(Cc2ccc(OCC3=NCCN3)cc2)cc1 [Example 7, 4,5-dihydro-2-[[4-(phenylmethyl)phenoxy]methyl]-1H-imidazole] | 33 | – | –
17900 | > 100000 | NC(COc1ccc(Cc2ccccc2)cc1)=NO [Example 12, N'-hydroxy-2-[4-(phenylmethyl)phenoxy]ethanimidamine] | 63 | – | –
550 | 1170 | COC(=O)CCN1CCN=C1COc1ccc(Cc2ccccc2)cc1 [Example 8] | 68 | – | –

More lines, now with the values behind:

SMILES | IC50 [1] [nM] | IC50 [3] [nM] | inhibition at 10 mg/kg [2] [%] | granulocyte agonist activity inducing chemotaxis, aggregation, degranulation, adherence and priming [4] | LTA4 hydrolase inhibitory activity [5]
CCOC(=O)CCNC(=N)COc1ccc(Cc2ccccc2)cc1 [Example 6, ethyl 3-[[1-imino-2-[4-(phenylmethyl)phenoxy]ethyl]amino]propanoate, monohydrochloride] | 200 | 23 | 54 | – | –
N=C(N)COc1ccc(Cc2ccccc2)cc1 [Example 10, 1-imino-2-[4-(phenylmethyl)phenoxy]ethanamine] | 480 | 89 | 0 | – | –
CCCCC/C=C\C[C@@H](O)/C=C/C=C/C=C\[C@@H](O)CCCC(=O)O [LTB4] | – | – | – | potent granulocyte agonist | –
N=C(COc1ccc(Cc2ccccc2)cc1)N1CCCC1 [Example 3, α[[4-(phenylmethyl)phenoxy)methyl]-1-pyrrolidinemethanimine, monohydrochloride] | 53 | 4 | 46 | – | –
CC(C)C[C@H](NC(=O)[C@@H](O)[C@H](N)Cc1ccccc1)C(=O)O [bestatin] | – | – | – | – | exhibit LTA4 hydrolase inhibitory activity
CCOC(=O)C1CCN(C(=N)COc2ccc(Cc3ccccc3)cc2)CC1 [Example 5, ethyl 1-[1-imino-2-[4-(phenylmethyl)phenoxy]ethyl]-4-piperidinecarboxylate,monohydrochloride] | 71 | 1.3 | 62 | – | –
C[C@H](CS)C(=O)N1CCC[C@H]1C(=O)O [captopril] | – | – | – | – | exhibit LTA4 hydrolase inhibitory activity
